# In patent US20090088380A1, “GHRH ANALOGS AND THERAPEUTIC USES THEREOF” (priority 2007, published 2009):
# Several values for one entry are separate records, joined by “and”; a condition that tells them apart may be missing. Equal entries are not always repeated. Non-standard residues stand in square brackets, D forms with d. Residues, ends and D or L forms follow the SMILES beside them.
# Test system: malnourished subjects with CKD
# Assay: Phase II CKD: bioimpedance
# Type: in vivo, human
# Settings: for Basal metabolic rate: median / Body cell mass: median / Extracellular cell mass: median / Extracellular water: median / Intracellular water: median / Total body water: median / Fat free mass (%): median / Fat free mass (kg): median / Fat mass (%): median / Fat mass (kg): median: ITT; for Fat free mass (%): median / Fat free mass (kg): median / Fat mass (%): median / Fat mass (kg): median: bioimpedance
# Experimental: Height (cm) was measured only at the screening visit. Anthrompometry was measured at every visit from baseline to follow-up. Anthropometric measurements included weight, skinfold thicknesses and arm circumference. Weight (kg) was measured using a high performance scale. Subjects were asked to stand on the scale with minimal clothing, no shoes, and with even weight on both feet. Skinfold thickness (mm) was measured by using Harpenden Skinfold Callipers at 4 sites: biceps, triceps, suprailiacal and subscapular. Arm circumference (cm) was measured using a tape measure that is flexible, inelastic and metric. The site measured was marked, and the tape was not to be too tight or too loose, and to lie flat on the skin, and be horizontal. Bioimpedance measurements were made to measure body composition at every visit from baseline to Day 28. The bioimpedance scale (RJL Systems) was used. Resistance, reactance and the phase angle were recorded.
# Bioelectrical impedance (BIA) was used to evaluate body water content (total body water %, extracellular water and intracellular water), fat free mass and fat mass using Maltron BioScan 916 and BIA 450 apparatus from Biodynamics Corp. The method is fast, precise and noninvasive.
# Bioimpedance measurements were done at every visit from baseline (day 0) on days 7, 14, 21 to 28. Weight and FFM (kg) were measured and FM (kg, %) and FFM (%) were derived. There was an increase from baseline in median FFM (3.3 kg) and decrease in median FM (1.8 kg) in all except one (11/12) patients in the GHRH(1-29)NH2 synthetic analog group on day 28 while there was a decrease in median FFM (0.8 kg) and increase in median FM (1.3 kg) in the placebo arm.
smiles,measurement,setting,value
"CC[C@H](C)[C@H](NC(=O)[C@H](C)NC(=O)[C@H](CC(=O)O)NC(=O)[C@@H](C)NC(=O)[C@@H](N)Cc1ccc(O)cc1)C(=O)N[C@@H](Cc1ccccc1)C(=O)N[C@H](C(=O)N[C@@H](CC(N)=O)C(=O)N[C@@H](CO)C(=O)N[C@H](Cc1ccc(O)cc1)C(=O)N[C@@H](CCCNC(=N)N)C(=O)N[C@@H](CCCCN)C(=O)N[C@H](C(=O)N[C@@H](CC(C)C)C(=O)N[C@H](C)C(=O)N[C@@H](CCC(N)=O)C(=O)N[C@@H](CC(C)C)C(=O)N[C@@H](CO)C(=O)N[C@@H](C)C(=O)N[C@@H](CCCNC(=N)N)C(=O)N[C@@H](CCCCN)C(=O)N[C@@H](CCCCN)C(=O)N[C@@H](CC(C)C)C(=O)N[C@@H](CCC(N)=O)C(=O)N[C@@H](CC(=O)O)C(=O)N[C@H](C(=O)N[C@@H](CCSC)C(=O)N[C@@H](CO)C(=O)N[C@@H](CCCNC(=N)N)C(N)=O)[C@@H](C)CC)C(C)C)[C@@H](C)O [GHRH analog #5, [D-Ala^2, D-Tyr^10, D-Ala^15, Lys^22] hGHRH(1-29)-NH2] (H-Y[dA]DAIFTNS[dY]RKVL[dA]QLSARKKLQDIMSR-NH2)",Median FFM,"BIA, day 7",50.4 kg
same,Median FM,"BIA, day 7",13.3 kg
same,Median FFM,"BIA, day 14",50.8 kg
same,Median FM,"BIA, day 14",13.4 kg
same,Median FFM,"BIA, day 21",50.1 kg
same,Median FM,"BIA, day 21",12.6 kg
same,Decrease from baseline in median FM,"BIA, day 28",1.8 kg
same,Increase from baseline in median FFM,"BIA, day 28",3.3 kg
same,Increase in median BMR from baseline,"BIA, day 28",49 kcal
same,Basal metabolic rate: median,Baseline,1441 kcal
same,Body cell mass: median,Baseline,23 kg and 23.0 kg
same,Extracellular cell mass: median,Baseline,23.5 kg
same,Extracellular water: median,Baseline,17.7 L
same,Intracellular water: median,Baseline,17.0 L
same,Total body water: median,Baseline,35.8 L
same,Basal metabolic rate: median,Day 28,1473 kcal
same,Body cell mass: median,Day 28,22.6 kg
same,Extracellular cell mass: median,Day 28,24.7 kg
same,Extracellular water: median,Day 28,19.1 L
same,Intracellular water: median,Day 28,15.8 L
same,Total body water: median,Day 28,38.1 L
same,Ratio of median ECW/ICW,baseline,1.04
same,Fat free mass (%): median,Baseline,75.3%
same,Fat free mass (kg): median,Baseline,48.8 kg
same,Fat mass (%): median,Baseline,24.7%
same,Fat mass (kg): median,Baseline,16.0 kg
same,Fat mass (kg): median,"Baseline, listed as GHRH(1-29)NH2 synthetic analog",16 kg
same,Fat free mass (%): median,Day 28,78.6%
same,Fat free mass (kg): median,Day 28,51.1 kg
same,Fat mass (%): median,Day 28,21.4%
same,Fat mass (kg): median,Day 28,12.2 kg
same,Median BCM,day 7,25.1 kg
same,Median ECM,day 7,24.4 kg
same,Median increase in BCM from baseline,day 7,1.3 kg
same,Median increase in ECM from baseline,day 7,0.8 kg
same,Median BCM,day 14,24.3 kg
same,Median ECM,day 14,25.4 kg
same,Median BCM,day 21,23.2 kg
same,Median ECM,day 21,25.9 kg
same,Increase in median ECW from baseline,day 28,1.9 L
same,Increase in median ICW from baseline,day 28,1.2 L
same,Increase in median total body water from baseline,day 28,3 L
same,Median increase in BCM from baseline,day 28,1.8 kg
same,Median increase in ECM from baseline,day 28,1.7 kg
same,Ratio of median ECW/ICW,day 28,1.2
